Active and inactive are the calls of the source. No cut-off for these calls is given here.

The values that follow come from ChEMBL document CHEMBL1154799, “Asymmetrically substituted cationic indole- and fluorene porphyrins inhibit tumor proliferation in small intestinal neuroendocrine tumors and medullary thyroid carcinomas” (Eur J Med Chem, 2010).

Series [1] can be described thus: Cytotoxicity against human HF-SAR cells assessed as decrease in cell viability at 10 uM after 72 hrs by WST-1 assay. The format is cell-based.
The subject of series [2] is KRJ-I. Description: Antiproliferative activity against human KRJ-I cells at 10 uM after 72 hrs by WST-1 assay. The format is functional, cell-based.
Series [3] is described as follows: (§1) Cytotoxicity against human MTC-SK cells assessed as decrease in cell viability at 10 uM after 72 hrs by WST-1 assay. The format is functional.
Series [4] has as its system MTC-SK. The series is described as §1. The format is functional.
Series [5] has as its system Nucleic Acid. Description: Binding affinity to calf thymus DNA assessed as change in melting temperature. The format is nucleic-acid assay. The settings on record: Bos taurus.
The nature of series [6]: (§2) Antiproliferative activity against human MTC-SK cells after 72 hrs by WST-1 assay. The format is functional, cell-based.
Series [7] deals with MTC-SK. The series is described as §2. The format is functional, cell-based.
Series [8] in a line: (§3) Cytotoxicity against human KRJ-I cells assessed as decrease in cell viability at 10 uM after 72 hrs by WST-1 assay. The format is functional.
For series [9], the system named is KRJ-I. The description is as §3. The format is functional.
Series [10] is described as follows: (§4) Cytotoxicity against human MTC-SK cells assessed as decrease in cell viability after 72 hrs by WST-1 assay. The format is functional, cell-based.
Series [11] concerns MTC-SK. The description is as §4. The format is functional, cell-based.
A short description of series [12]: Antiproliferative activity against human HF-SAR cells at 10 uM after 72 hrs by WST-1 assay. The format is cell-based.
The test system of series [13] is KRJ-I. The series is described as follows: Cytotoxicity against human KRJ-I cells assessed as induction of protease activity at 10 uM after 72 hrs by luminescence based assay. The format is functional, cell-based.
Series [14] is described as follows: (§5) Cytotoxicity against human KRJ-I cells assessed as decrease in cell viability after 72 hrs by WST-1 assay. The format is functional, cell-based.
In series [15] the test system is KRJ-I. The series is described as §5. The format is functional, cell-based.
The test system of series [16] is MTC-SK. Description: Antiproliferative activity against human MTC-SK cells at 10 uM after 72 hrs by WST-1 assay. The format is functional, cell-based.
Series [17] is described as follows: Cytotoxicity against human MTC-SK cells assessed as induction of protease activity at 10 uM after 72 hrs by luminescence based assay. The format is functional.
Series [18] is described as follows: (§6) Antiproliferative activity against human KRJ-I cells after 72 hrs by WST-1 assay. The format is functional, cell-based.
The test system of series [19] is KRJ-I. The series is described as §6. The format is functional, cell-based.
The test system of series [20] is Nucleic Acid. Description: Binding affinity to oligonucleotide d(CGTACG)2 by DNA intercalation assay. The format is nucleic-acid assay.

On to `C[n+]1ccc(-c2c3nc(c(-c4cc[n+](C)cc4)c4ccc([nH]4)c(-c4cc[n+](C)cc4)c4nc(c(-c5ccc(-c6cn(S(=O)(=O)c7ccccc7)c7ccccc67)cc5)c5ccc2[nH]5)C=C4)C=C3)cc1.[Cl-].[Cl-].[Cl-]`, for which the Activity result was “Not Active” in [1]; 74% in [3]; “Dose-dependent effect” in [7]; 37% in [8]; “Dose-dependent effect” in series [11]; “Active” in [12]. For the same compound, the Activity entry is “Dose-dependent effect” in series [15], 64% in series [17] and “Dose-dependent effect” in series [19]. The outcome in series [2], in series [4], in series [5], in [9] and in series [16] was Active. The IC50 in [6], in series [10], in series [14] and in series [18] was 10 µM in each case. The outcome in series [13] was inactive.
Turning to `C[n+]1ccc(-c2c3nc(c(-c4cc[n+](C)cc4)c4ccc([nH]4)c(-c4cc(-c5ccc6c(c5)C(C)(C)c5ccccc5-6)c[n+](C)c4)c4nc(c(-c5cc[n+](C)cc5)c5ccc2[nH]5)C=C4)C=C3)cc1`, in [20], the result was Active.
For the compound `C[n+]1ccc(-c2c3nc(c(-c4cc(-c5ccc6c(c5)C(C)(C)c5ccccc5-6)c[n+](C)c4)c4ccc([nH]4)c(-c4cc[n+](C)cc4)c4nc(c(-c5cc(-c6ccc7c(c6)C(C)(C)c6ccccc6-7)c[n+](C)c5)c5ccc2[nH]5)C=C4)C=C3)cc1.[Cl-].[Cl-].[Cl-].[Cl-]`, the Activity result was “Not Active” in series [1]; 91% in [3]; “Dose-dependent effect” in [7]; 95% in series [8]; “Dose-dependent effect” in series [11]; “Active” in series [12]. For the same compound, the Activity entry is “Dose-dependent effect” in [15], 46% in series [17] and “Dose-dependent effect” in [19]. Moreover, the result in [2], in series [4], in [20], in [5], in series [9] and in series [16] was Active. In addition, the IC50 in [6], in series [10], in series [14] and in [18] was 22.7 µM throughout. The result in series [13] was inactive.
